# Measured values: US4340609A, “Amidinourea derivative veterinary compositions for suppression of parasitemia” (William H. Rorer, Inc., priority 1980, dated 1982)
# Counter-ions that a name gives are not always drawn. Like-named read-outs stand apart in the source and are kept apart here.
# Key:
# plasmodium berghei = assay: suppression of parasitemia in mice infected with plasmodium berghei; assay type: in vivo; details: for ED50: Plasmodium berghei, sc; for ED50 / Mean % Parasitemia / Mean % Suppression / % died: mice
# Method: Five representative amidinoureas were tested in mice infected with plasmodium berghei. The five compounds tested are the following:
# Groups of 10 mice each were used in seven doses totaling 70 mice per compound. The protozoal infection was induced by intraperitoneal injection of 5,000,000 parasitized blood cells from a donor. The compound was administered subcutaneously in doses ranging from 0.15 to 10 mg. per kg., suspended on 0.5% methacel solution (doses expressed as base). The compound was repeatedly injected on the day of inoculation (day 1), day 2 and day 3. Blood smears were performed on days 4, 5, 6 and 10.
# Untreated control but infected mice developed fulminating parasitemia of as high as 35% on day 10 and deaths occurred from day 12 to 14.
# LD50 in mice = details: mouse, in vivo
# [1] = s.c., 1.0 mg/kg on days 1-3, 4th day
# [2] = s.c., 1.0 mg/kg on days 1-3, 5th day
# [3] = s.c., 1.0 mg/kg on days 1-3, 6th day
# [4] = s.c., 1.0 mg/kg on days 1-3, 10th day
# [5] = s.c., 2.0 mg/kg on days 1-3, 4th day
# [6] = s.c., 2.0 mg/kg on days 1-3, 5th day
# [7] = s.c., 2.0 mg/kg on days 1-3, 6th day
# [8] = s.c., 2.0 mg/kg on days 1-3, 10th day
# [9] = s.c., 10.0 mg/kg on days 1-3, 4th day
# [10] = s.c., 10.0 mg/kg on days 1-3, 5th day
# [11] = s.c., 10.0 mg/kg on days 1-3, 6th day
# [12] = s.c., 10.0 mg/kg on days 1-3, 10th day
# [13] = s.c., .15 mg/kg on days 1-3, 4th day
# [14] = s.c., .15 mg/kg on days 1-3, 5th day
# [15] = s.c., .15 mg/kg on days 1-3, 6th day
# [16] = s.c., .15 mg/kg on days 1-3, 10th day
# [17] = s.c., .20 mg/kg on days 1-3, 4th day
# [18] = s.c., .20 mg/kg on days 1-3, 5th day
# [19] = s.c., .20 mg/kg on days 1-3, 6th day
# [20] = s.c., .20 mg/kg on days 1-3, 10th day
# [21] = s.c., .30 mg/kg on days 1-3, 4th day
# [22] = s.c., .30 mg/kg on days 1-3, 5th day
# [23] = s.c., .30 mg/kg on days 1-3, 6th day
# [24] = s.c., .30 mg/kg on days 1-3, 10th day
# [25] = s.c., .50 mg/kg on days 1-3, 4th day
# [26] = s.c., .50 mg/kg on days 1-3, 5th day
# [27] = s.c., .50 mg/kg on days 1-3, 6th day
# [28] = s.c., .50 mg/kg on days 1-3, 10th day
structure (smiles),measurement,setting,value
"CNC(=N)NC(=O)Nc1c(C)cccc1Br [Compound B, 1-(2-bromo-6-methylphenyl)-3-methylamidino)urea hydrochloride]",ED50,"plasmodium berghei; 96 h, s.c., levels of parasitemia, 4th day, read-out: SED50 (Suppressant Effective Dose50)",1.87 mg/kg
same,ED50,"plasmodium berghei; 120 h, s.c., levels of parasitemia, 5th day, read-out: SED50 (Suppressant Effective Dose50)",1.87 mg/kg
same,ED50,"plasmodium berghei; 144 h, s.c., levels of parasitemia, 6th day, read-out: SED50 (Suppressant Effective Dose50)",1.66 mg/kg
same,ED50,"plasmodium berghei; 240 h, s.c., levels of parasitemia, 10th day, read-out: SED50 (Suppressant Effective Dose50)",1.87 mg/kg
same,ED50,"plasmodium berghei; day 4 to day 10, read-out: HIGHEST SED50",1.87 mg/kg
same,ED50,"plasmodium berghei; day 4 to day 10, read-out: LOWEST SED50",1.66 mg/kg
same,FACTOR (HIGHEST SED50 ÷ LOWEST SED50),"plasmodium berghei; factor of change, day 4 to day 10, duration of action",1.12
same,Mean % Parasitemia,plasmodium berghei; [1],3.75%
same,Mean % Suppression,plasmodium berghei; [1],28.6%
same,Mean % Parasitemia,plasmodium berghei; [2],4.30%
same,Mean % Suppression,plasmodium berghei; [2],41.1%
same,Mean % Parasitemia,plasmodium berghei; [3],5.10%
same,Mean % Suppression,plasmodium berghei; [3],45.2%
same,Mean % Parasitemia,plasmodium berghei; [4],23.2%
same,Mean % Suppression,plasmodium berghei; [4],34.6%
same,% died,"plasmodium berghei; s.c., 1.0 mg/kg on days 1-3, 12th day",0%
same,% died,"plasmodium berghei; s.c., 1.0 mg/kg on days 1-3, 13th day",20%
same,% died,"plasmodium berghei; s.c., 1.0 mg/kg on days 1-3, 14th day",20%
same,Mean % Parasitemia,plasmodium berghei; [5],2.50%
same,Mean % Suppression,plasmodium berghei; [5],52.3%
same,Mean % Parasitemia,plasmodium berghei; [6],3.40%
same,Mean % Suppression,plasmodium berghei; [6],53.2%
same,Mean % Parasitemia,plasmodium berghei; [7],4.50%
same,Mean % Suppression,plasmodium berghei; [7],51.6%
same,Mean % Parasitemia,plasmodium berghei; [8],19.8%
same,Mean % Suppression,plasmodium berghei; [8],44.2%
same,% died,"plasmodium berghei; s.c., 2.0 mg/kg on days 1-3, 12th day",0%
same,% died,"plasmodium berghei; s.c., 2.0 mg/kg on days 1-3, 13th day",0%
same,% died,"plasmodium berghei; s.c., 2.0 mg/kg on days 1-3, 14th day",20%
same,Mean % Parasitemia,plasmodium berghei; [9],0.25%
same,Mean % Suppression,plasmodium berghei; [9],96.2%
same,Mean % Parasitemia,plasmodium berghei; [10],0.50%
same,Mean % Suppression,plasmodium berghei; [10],94.0%
same,Mean % Parasitemia,plasmodium berghei; [11],0.05%
same,Mean % Suppression,plasmodium berghei; [11],99.6%
same,Mean % Parasitemia,plasmodium berghei; [12],0%
same,Mean % Suppression,plasmodium berghei; [12],100.0%
same,% died,"plasmodium berghei; s.c., 10.0 mg/kg on days 1-3, 12th day",0%
same,% died,"plasmodium berghei; s.c., 10.0 mg/kg on days 1-3, 13th day",0%
same,% died,"plasmodium berghei; s.c., 10.0 mg/kg on days 1-3, 14th day",0%
same,Mean % Parasitemia,plasmodium berghei; [13],5.00%
same,Mean % Suppression,plasmodium berghei; [13],4.8%
same,Mean % Parasitemia,plasmodium berghei; [14],7.00%
same,Mean % Suppression,plasmodium berghei; [14],4.1%
same,Mean % Parasitemia,plasmodium berghei; [15],7.80%
same,Mean % Suppression,plasmodium berghei; [15],16.1%
same,Mean % Parasitemia,plasmodium berghei; [16],34.1%
same,Mean % Suppression,plasmodium berghei; [16],3.9%
same,% died,"plasmodium berghei; s.c., .15 mg/kg on days 1-3, 12th day",20%
same,% died,"plasmodium berghei; s.c., .15 mg/kg on days 1-3, 13th day",20%
same,% died,"plasmodium berghei; s.c., .15 mg/kg on days 1-3, 14th day",20%
same,Mean % Parasitemia,plasmodium berghei; [17],5.00%
same,Mean % Suppression,plasmodium berghei; [17],4.8%
same,Mean % Parasitemia,plasmodium berghei; [18],6.90%
same,Mean % Suppression,plasmodium berghei; [18],5.5%
same,Mean % Parasitemia,plasmodium berghei; [19],7.40%
same,Mean % Suppression,plasmodium berghei; [19],20.4%
same,Mean % Parasitemia,plasmodium berghei; [20],30.2%
same,Mean % Suppression,plasmodium berghei; [20],14.9%
same,% died,"plasmodium berghei; s.c., .20 mg/kg on days 1-3, 12th day",0%
same,% died,"plasmodium berghei; s.c., .20 mg/kg on days 1-3, 13th day",20%
same,% died,"plasmodium berghei; s.c., .20 mg/kg on days 1-3, 14th day",40%
same,Mean % Parasitemia,plasmodium berghei; [21],4.00%
same,Mean % Suppression,plasmodium berghei; [21],23.8%
same,Mean % Parasitemia,plasmodium berghei; [22],6.60%
same,Mean % Suppression,plasmodium berghei; [22],9.6%
same,Mean % Parasitemia,plasmodium berghei; [23],6.90%
same,Mean % Suppression,plasmodium berghei; [23],25.8%
same,Mean % Parasitemia,plasmodium berghei; [24],29.1%
same,Mean % Suppression,plasmodium berghei; [24],18.0%
same,% died,"plasmodium berghei; s.c., .30 mg/kg on days 1-3, 12th day",0%
same,% died,"plasmodium berghei; s.c., .30 mg/kg on days 1-3, 13th day",0%
same,% died,"plasmodium berghei; s.c., .30 mg/kg on days 1-3, 14th day",40%
same,Mean % Parasitemia,plasmodium berghei; [25],4.00%
same,Mean % Suppression,plasmodium berghei; [25],23.8%
same,Mean % Parasitemia,plasmodium berghei; [26],5.10%
same,Mean % Suppression,plasmodium berghei; [26],30.1%
same,Mean % Parasitemia,plasmodium berghei; [27],5.80%
same,Mean % Suppression,plasmodium berghei; [27],37.6%
same,Mean % Parasitemia,plasmodium berghei; [28],26.7%
same,Mean % Suppression,plasmodium berghei; [28],24.8%
same,% died,"plasmodium berghei; s.c., .50 mg/kg on days 1-3, 12th day",20%
same,% died,"plasmodium berghei; s.c., .50 mg/kg on days 1-3, 13th day",40%
same,% died,"plasmodium berghei; s.c., .50 mg/kg on days 1-3, 14th day",60%
same,LD50,LD50 in mice,82 to 135 mg/kg
